Test results reported in US4220645A, “Chromone derivatives” (Thea (Therapeutique et Applications) SA, priority 1977, dated 1980).
Counter-ions that a name gives are not always drawn.

Tests used:
[1] = tested on: rhythm disorders induced by aconitine; assay: Anti-arrhythmic activity in the guinea-pig (aconitine-induced arrhythmia); assay type: in vivo; details: for Average time for arrhythmia to appear, PES (polymorphic extrasystoles) / Average time for arrhythmia to appear, VT (ventricular tachycardia) / Average time for arrhythmia to appear, MTV (multifocal ventricular tachycardia) / Average time for arrhythmia to appear, VTB (ventricular tachycardia bursts): 6 guinea pigs; for Average time for arrhythmia to appear, PES (polymorphic extrasystoles): controls 27 ± 2; for Average time for arrhythmia to appear, VT (ventricular tachycardia): controls 30 ± 2; for Average time for arrhythmia to appear, MTV (multifocal ventricular tachycardia): controls 41 ± 2; for Average time for arrhythmia to appear, VTB (ventricular tachycardia bursts): controls 63 ± 4; for Delay of rhythm disorders induced by aconitine: I.V., guinea-pig, compared with amiodarone
Protocol: Anti-arrhythmic activity in the guinea-pig
Reference: Experimental evaluation of anti-arrhythmic drugs in the guinea-pig. GUIDICELLI, WITCHITZ, LARNO, BOISSIER, Biomedecine, 1973, 19, 308-313.
Male and female guinea-pigs were used, weighing from 600 to 800 g and anesthetised with urethane (1.25 g/kg/I.P.), tracheotomised and kept under artificial respiration. The electrocardiogram (D2) was recorded.
Arrhythmia was produced by perfusion at the rate of 0.5 ml/min of an aqueous solution of aconitine nitrate (0.15 mg/ml) in the jugular vein. Measurements were made of the time before the following rhythm disturbances appeared:
Polymorphic extrasystoles (PES),
Ventricular tachycardia (VT),
Multifocal ventricular tachycardia (MVT),
Ventricular tachycardia bursts (VTB),
that is a sequence of ventricular complexes of fixed frequency but with regular increasing and decreasing amplitude.
The following substances were used:
Amiodarone hydrochloride for comparison.
The substances were intravenously injected immediately before perfusion with aconitine had started.

[2] = tested on: spontaneous heart rate; assay: Bradycardiac activity on the conscious dog; assay type: in vivo, dog (mongrel); details: 4 mg/kg I.V.; for Average heart beat after substance injected: 9 dogs, before injection 132 ± 9, (S) significant to p = 0,05
Protocol: Bradycardiac activity on the conscious dog
The dogs used were male and female mongrels weighing from 15 to 20 kg. Their bypass electrocardiograms (D2) were recorded and their heart rate (FC) was measured with a cardiotachometer.
The animals were not used to tests and consequently their heart rate was relatively high, 130 beats per minute on average.
3 control measurements of the heart rate were made during the hour before intravenous injection of the substance under study, and 3 further measurements were made 5 minutes, 20 minutes and 35 minutes after administration.

[3] = tested on: tachycardia produced by isoprenaline stimulation of the sympathicoβ receptors of the heart; assay: Sympathico-inhibiting activity in the conscious dog (isoprenaline tachycardia); assay type: in vivo, dog (mongrel); details: for Effect of isoprenaline after substance injected: 4 mg/kg I.V., 6 dogs, before injection 114 ± 9 (controls), (S) significant to P = 0,05
Protocol: Sympathico-inhibiting activity in the conscious dog
The dogs used were male and female mongrels weighing from 15 to 20 kg. The animals were not anaesthetised. Their electrocardiograms (D2) and heart rates were measured.
Short bouts of tachycardia, approx. 1 minute long, were produced by intravenously injecting a solution of isoprenaline in doses of 0.25 Y/kg. The injections were repeated every 15 minutes until the increase in heart rate had been reproduced in a satisfactory manner.
Next, the substance under study was intravenously injected and 3 additional measurements of the isoprenaline tachycardia were made 5 minutes, 20 minutes and 35 minutes after the product under study had been administered.

[4] = Acute toxicity in the mouse; assay type: in vivo; details: female Swiss mice
Protocol: Acute toxicity in the mouse
The acute toxicity of compound No. 6 administered intravenously (I.V.) and orally (P.O.) was determined in female mice of the Swiss strain weighing from 25 to 27 g.
Compound No. 6 was administered in aqueous solution in a concentration of 0.4% intravenously and in a concentration of 1% and 4% orally.

## CCCCc1oc2ccccc2c1C(=O)c1cc(I)c(OCCN(CC)CC)c(I)c1 [Amiodarone (hydrochloride), Amiodarone hydrochloride, reference compound]
[1]; 4 mg/kg I.V.
  Average time for arrhythmia to appear, PES (polymorphic extrasystoles): 32 ± 3 s
  Average time for arrhythmia to appear, VT (ventricular tachycardia): 44 ± 6 s
  Average time for arrhythmia to appear, MTV (multifocal ventricular tachycardia): 59 ± 5 s
  Average time for arrhythmia to appear, VTB (ventricular tachycardia bursts): 94 ± 8 s

## CCCCN(CCCC)CCCOc1c(C)cc(C(=O)c2cc(=O)c3ccccc3o2)cc1C [Compound No. 1, 2-[4-(3-N,N-dibutylaminopropoxy) 3,5-dimethylbenzoyl] chromone hydrochloride]
[2]; conscious dog
  Effect on spontaneous heart rate: significantly lowers the spontaneous heart rate
[2]; 5 min, spread ±10
  Average heart beat after substance injected: 114 beats/min
[2]; 20 min, spread ±8
  Average heart beat after substance injected: 109 beats/min
[2]; 35 min, spread ±8
  Average heart beat after substance injected: 107 beats/min
[3]; 5 min, spread ±12
  Effect of isoprenaline after substance injected: 68 beats per minute
[3]; 20 min, spread ±10
  Effect of isoprenaline after substance injected: 89 beats per minute
[3]; 35 min, spread ±10
  Effect of isoprenaline after substance injected: 97 beats per minute
[3]; isoprenaline tachycardia, conscious dog
  Sympathico-inhibiting activity: can moderate tachycardia produced by isoprenaline stimulation
[1]; 2 mg/kg I.V.
  Average time for arrhythmia to appear, PES (polymorphic extrasystoles): 63 ± 4 s
  Average time for arrhythmia to appear, VT (ventricular tachycardia): 79 ± 9 s
  Average time for arrhythmia to appear, MTV (multifocal ventricular tachycardia): 94 ± 10 s
  Average time for arrhythmia to appear, VTB (ventricular tachycardia bursts): 139 ± 11 s
[1]
  Delay of rhythm disorders induced by aconitine: delay rhythm disorders induced by aconitine to a greater extent than the conventional reference compound, amiodarone

## CCCCN(CCCC)CCCOc1c(C)cc(C(=O)c2oc3ccccc3c(=O)c2C)cc1C [Compound No. 6, 2-[4-(3-N,N-dibutylaminopropoxy) 3,5-dimethylbenzoyl] 3-methyl chromone hydrochloride]
[4]; I.V., aqueous solution 0.4%
  Lethal dose: ~30 mg/kg
[4]; P.O., aqueous solution 1% and 4%
  Lethal dose: ~1200 mg/kg

## CCCCN(CCCC)CCOc1c(C)cc(C(=O)c2cc(=O)c3ccccc3o2)cc1C [Compound No. 7, 2-[4-(2-N,N-dibutylaminoethoxy) 3,5-dimethylbenzoyl] chromone hydrochloride]
[1]; 4 mg/kg I.V.
  Average time for arrhythmia to appear, PES (polymorphic extrasystoles): 36 ± 4 s
  Average time for arrhythmia to appear, VT (ventricular tachycardia): 55 ± 8 s
  Average time for arrhythmia to appear, MTV (multifocal ventricular tachycardia): 77 ± 9 s
  Average time for arrhythmia to appear, VTB (ventricular tachycardia bursts): 145 ± 10 s
[1]
  Delay of rhythm disorders induced by aconitine: delay rhythm disorders induced by aconitine to a greater extent than the conventional reference compound, amiodarone
